Where a name gives a salt, the structure may show the parent alone. Calls of active or inactive are those of the source.
Columns and labels:
Aminopeptidase N = target: T1, Aminopeptidase N (Plasmodium falciparum FcB1/Columbia, UniProt O96935); experiment: P. falciparum M1AAP inhibitors, biochemical, fluorogenic H-Leu-NHMec substrate, 1536-well (AID 1445); parameters: species or system Plasmodium falciparum 3D7, 3D7
T1 sequence (O96935 whole entry): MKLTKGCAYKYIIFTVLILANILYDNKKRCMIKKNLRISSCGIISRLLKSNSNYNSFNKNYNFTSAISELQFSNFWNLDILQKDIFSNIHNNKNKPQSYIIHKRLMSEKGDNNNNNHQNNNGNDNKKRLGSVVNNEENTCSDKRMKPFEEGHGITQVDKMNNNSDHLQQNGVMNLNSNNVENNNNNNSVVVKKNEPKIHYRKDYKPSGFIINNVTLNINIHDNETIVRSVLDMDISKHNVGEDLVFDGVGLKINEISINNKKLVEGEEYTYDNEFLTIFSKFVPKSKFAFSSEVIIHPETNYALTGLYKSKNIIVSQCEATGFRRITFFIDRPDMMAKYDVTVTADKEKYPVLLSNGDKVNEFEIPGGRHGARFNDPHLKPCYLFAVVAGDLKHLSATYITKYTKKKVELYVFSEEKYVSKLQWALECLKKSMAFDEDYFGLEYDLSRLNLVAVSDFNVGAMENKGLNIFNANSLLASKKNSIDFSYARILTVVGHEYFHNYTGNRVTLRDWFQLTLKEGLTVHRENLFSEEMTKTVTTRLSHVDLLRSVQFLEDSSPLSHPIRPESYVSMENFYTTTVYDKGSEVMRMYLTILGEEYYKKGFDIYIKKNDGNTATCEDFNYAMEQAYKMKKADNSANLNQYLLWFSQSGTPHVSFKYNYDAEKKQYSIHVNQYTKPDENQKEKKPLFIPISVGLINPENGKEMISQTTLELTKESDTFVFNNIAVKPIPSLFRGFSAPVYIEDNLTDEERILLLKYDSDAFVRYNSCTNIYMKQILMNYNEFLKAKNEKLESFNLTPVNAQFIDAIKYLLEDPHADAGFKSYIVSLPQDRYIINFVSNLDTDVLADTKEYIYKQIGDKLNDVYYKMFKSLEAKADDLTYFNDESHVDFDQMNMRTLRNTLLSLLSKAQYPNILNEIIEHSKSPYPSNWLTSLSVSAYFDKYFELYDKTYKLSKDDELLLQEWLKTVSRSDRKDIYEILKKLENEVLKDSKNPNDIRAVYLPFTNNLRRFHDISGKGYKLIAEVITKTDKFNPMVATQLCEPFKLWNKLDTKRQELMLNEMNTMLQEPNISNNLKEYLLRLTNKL

[1] = target: T2, Replicative DNA helicase DnaB (Mycobacterium tuberculosis, UniProt P9WMR3); experiment: DnaB intein splicing inhibitors, dose response, biochemical, cell-free fluorescence (AID 449749); type: functional
T2 sequence (P9WMR3 whole entry): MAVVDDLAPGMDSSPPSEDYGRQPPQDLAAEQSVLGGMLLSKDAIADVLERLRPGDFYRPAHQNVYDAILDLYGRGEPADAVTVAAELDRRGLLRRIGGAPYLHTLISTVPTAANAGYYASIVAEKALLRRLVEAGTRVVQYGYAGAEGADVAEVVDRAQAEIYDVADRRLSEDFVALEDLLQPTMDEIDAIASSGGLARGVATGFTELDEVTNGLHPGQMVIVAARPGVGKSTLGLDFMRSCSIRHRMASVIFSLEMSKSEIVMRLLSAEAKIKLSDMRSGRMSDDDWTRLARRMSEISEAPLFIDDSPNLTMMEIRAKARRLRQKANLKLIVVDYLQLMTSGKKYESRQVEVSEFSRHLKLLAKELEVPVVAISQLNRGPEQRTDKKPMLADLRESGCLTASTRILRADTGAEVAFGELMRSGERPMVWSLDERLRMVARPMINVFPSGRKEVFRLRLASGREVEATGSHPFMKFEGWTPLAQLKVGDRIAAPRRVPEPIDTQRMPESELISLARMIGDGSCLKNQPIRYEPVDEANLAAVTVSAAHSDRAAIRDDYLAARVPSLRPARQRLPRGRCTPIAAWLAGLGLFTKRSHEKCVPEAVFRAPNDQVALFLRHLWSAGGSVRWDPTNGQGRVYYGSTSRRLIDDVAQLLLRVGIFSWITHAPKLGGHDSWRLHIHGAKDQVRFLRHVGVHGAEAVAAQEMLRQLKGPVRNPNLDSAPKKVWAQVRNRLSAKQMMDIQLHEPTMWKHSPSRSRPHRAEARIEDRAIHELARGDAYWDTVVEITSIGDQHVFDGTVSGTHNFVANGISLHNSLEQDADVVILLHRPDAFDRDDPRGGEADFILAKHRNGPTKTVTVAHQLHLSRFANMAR

Protein RecA = target: T3, Protein RecA (Mycobacterium tuberculosis, UniProt P9WHJ3); experiment: Fluorescence Cell-Free Homogeneous Dose Retest to Identify Inhibitors of RecA-Intein Splicing Activity. [Related pubchem assays (depositor defined):AID2097, AID2223, AID489010, AID492950]; type: functional
T3 sequence (P9WHJ3 whole entry): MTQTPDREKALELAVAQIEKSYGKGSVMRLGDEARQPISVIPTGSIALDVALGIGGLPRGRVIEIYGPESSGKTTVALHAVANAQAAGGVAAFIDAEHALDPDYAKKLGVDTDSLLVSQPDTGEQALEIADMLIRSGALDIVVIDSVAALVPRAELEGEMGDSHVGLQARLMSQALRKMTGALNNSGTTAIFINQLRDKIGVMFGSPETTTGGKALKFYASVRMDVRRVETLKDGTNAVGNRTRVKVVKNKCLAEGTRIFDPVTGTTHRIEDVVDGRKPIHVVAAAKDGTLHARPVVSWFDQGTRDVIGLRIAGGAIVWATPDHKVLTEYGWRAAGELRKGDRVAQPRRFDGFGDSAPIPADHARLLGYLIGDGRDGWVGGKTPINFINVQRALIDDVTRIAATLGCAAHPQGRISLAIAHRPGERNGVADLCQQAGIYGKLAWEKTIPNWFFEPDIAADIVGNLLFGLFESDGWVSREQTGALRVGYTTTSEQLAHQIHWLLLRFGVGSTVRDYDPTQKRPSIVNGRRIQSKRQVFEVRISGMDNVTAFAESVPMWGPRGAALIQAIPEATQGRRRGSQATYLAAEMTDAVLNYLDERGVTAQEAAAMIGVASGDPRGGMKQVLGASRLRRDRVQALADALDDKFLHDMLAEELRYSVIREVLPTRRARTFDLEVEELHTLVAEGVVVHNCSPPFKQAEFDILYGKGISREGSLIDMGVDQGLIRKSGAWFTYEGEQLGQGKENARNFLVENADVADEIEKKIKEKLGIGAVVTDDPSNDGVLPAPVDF

[2] = AlphaScreen signal interference compounds, dose response, artefact control for ARNT-TACC3 interaction inhibitor project, biochemical, luminescence, cherry-pick (AID 651705); type: functional;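 note: AlphaScreen bead proximity signal that flags compounds interfering with the detection technology; potency reflects signal decrease which marks the compound as an assay artifact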
[3] = HEp-2 cell cytotoxicity, dose response, cytotoxicity control for RSV inhibitor project, HTS (AID 2410); type: functional; conditions: human respiratory syncytial virus
[4] = target: T4, Apoptotic protease-activating factor 1 (Homo sapiens, UniProt O14727); type: functional
T4 sequence (O14727 whole entry): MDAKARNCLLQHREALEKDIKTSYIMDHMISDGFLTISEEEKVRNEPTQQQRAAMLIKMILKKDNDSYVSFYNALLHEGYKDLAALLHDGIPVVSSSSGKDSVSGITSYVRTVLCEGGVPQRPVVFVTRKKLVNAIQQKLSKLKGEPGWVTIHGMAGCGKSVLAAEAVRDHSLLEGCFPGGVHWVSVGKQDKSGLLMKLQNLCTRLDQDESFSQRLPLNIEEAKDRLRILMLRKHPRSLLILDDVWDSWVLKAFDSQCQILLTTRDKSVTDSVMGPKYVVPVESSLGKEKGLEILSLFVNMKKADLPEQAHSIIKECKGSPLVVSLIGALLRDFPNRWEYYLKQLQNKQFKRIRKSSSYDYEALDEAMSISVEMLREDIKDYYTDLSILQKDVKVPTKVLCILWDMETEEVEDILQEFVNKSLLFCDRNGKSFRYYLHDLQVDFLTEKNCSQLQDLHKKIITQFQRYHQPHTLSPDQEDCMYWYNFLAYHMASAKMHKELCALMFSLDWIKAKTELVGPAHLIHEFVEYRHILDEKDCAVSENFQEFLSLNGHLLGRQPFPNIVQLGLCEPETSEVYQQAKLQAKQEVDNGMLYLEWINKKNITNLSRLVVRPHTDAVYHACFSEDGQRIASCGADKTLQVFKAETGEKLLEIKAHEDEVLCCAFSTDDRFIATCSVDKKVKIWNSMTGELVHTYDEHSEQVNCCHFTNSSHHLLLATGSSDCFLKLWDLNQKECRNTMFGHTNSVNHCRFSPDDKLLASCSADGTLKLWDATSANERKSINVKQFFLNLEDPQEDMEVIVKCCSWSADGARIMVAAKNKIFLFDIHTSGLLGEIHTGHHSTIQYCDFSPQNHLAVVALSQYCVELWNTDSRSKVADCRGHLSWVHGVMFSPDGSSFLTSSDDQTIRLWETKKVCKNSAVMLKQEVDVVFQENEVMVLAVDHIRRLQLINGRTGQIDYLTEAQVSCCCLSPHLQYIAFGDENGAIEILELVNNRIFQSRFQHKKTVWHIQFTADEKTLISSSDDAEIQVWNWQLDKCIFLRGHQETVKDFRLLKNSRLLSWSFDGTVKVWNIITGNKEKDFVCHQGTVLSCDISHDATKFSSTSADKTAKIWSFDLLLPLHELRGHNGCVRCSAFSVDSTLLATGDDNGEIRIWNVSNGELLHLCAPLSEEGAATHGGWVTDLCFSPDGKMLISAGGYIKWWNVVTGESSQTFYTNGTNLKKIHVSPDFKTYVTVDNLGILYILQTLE

Protein Wnt-3a = Protein Wnt-3a (Mus musculus, UniProt P27467); experiment: Wnt3a-driven reporter signaling inhibition, dose response, selectivity assay for Gli-SUFU antagonist project, Wnt-LIGHT cells, luminescence (AID 651570); type: functional; conditions: read-out: IC50_Mean;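 note: Wnt-LIGHT reporter cells stimulated with conditioned medium from Wnt3a-producing cells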
Protein Wnt-3a, sequence (P27467 whole entry): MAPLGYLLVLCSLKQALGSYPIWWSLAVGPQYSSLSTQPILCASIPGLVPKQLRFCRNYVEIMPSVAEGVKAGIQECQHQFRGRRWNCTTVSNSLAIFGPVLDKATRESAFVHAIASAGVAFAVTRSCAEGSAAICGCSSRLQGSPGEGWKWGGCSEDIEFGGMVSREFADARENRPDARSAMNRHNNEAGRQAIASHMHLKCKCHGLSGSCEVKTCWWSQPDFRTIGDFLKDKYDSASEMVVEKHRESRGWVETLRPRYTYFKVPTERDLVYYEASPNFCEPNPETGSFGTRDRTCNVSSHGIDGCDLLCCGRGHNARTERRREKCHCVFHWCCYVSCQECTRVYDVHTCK

[5] = growth suppression of PTEN-null colon cells, dose response, cell-based, HCT116 PTEN knockout (AID 1047); type: functional;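 note: HCT116 colon tumor cells with PTEN knocked out; cells exposed to compound for 60 hours before readout; potency for loss of cell viability measured by luminescence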
[6] = growth suppression of beta-catenin-knockout colon cells, dose response, cell-based, HCT116, human colon tumor (AID 1045); type: functional;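 note: HCT116 colon tumor cells with beta catenin knocked out; cells exposed to compound for 60 hours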
[7] = Luminescence Cell-Based Dose Retest to Confirm Inhibitors of Cancer Stem Cells. [Related pubchem assays (depositor defined):AID2717, AID2721]; type: functional; conditions: Homo sapiens
[8] = target: Heat shock protein HSP 90-alpha (Homo sapiens, UniProt P07900); type: functional, organism-based
INS1 = experiment: beta cell apoptosis inhibitors, cytokine rescue, dose response, luminescence, retest (AID 449756); type: functional, cell-based; conditions: Rattus norvegicus;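 note: cell death triggered by IL-1 beta plus TNF-alpha plus IFN-gamma mixture; protective hits raise ATP signal compared with cytokine alone wells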
[9] = target: T5, Hepatocyte nuclear factor 4-alpha (Homo sapiens, UniProt P41235); type: functional, cell-based;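 note: biochemical luminescence-based dose-response counterscreen measuring inhibition of HNF4 dimerization, run alongside a screen for blockers of ABHD5–perilipin-5 interaction; split luciferase complementation of HNF4 fusion proteins in cell lysate measuring dimerization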
T5 sequence (P41235 whole entry): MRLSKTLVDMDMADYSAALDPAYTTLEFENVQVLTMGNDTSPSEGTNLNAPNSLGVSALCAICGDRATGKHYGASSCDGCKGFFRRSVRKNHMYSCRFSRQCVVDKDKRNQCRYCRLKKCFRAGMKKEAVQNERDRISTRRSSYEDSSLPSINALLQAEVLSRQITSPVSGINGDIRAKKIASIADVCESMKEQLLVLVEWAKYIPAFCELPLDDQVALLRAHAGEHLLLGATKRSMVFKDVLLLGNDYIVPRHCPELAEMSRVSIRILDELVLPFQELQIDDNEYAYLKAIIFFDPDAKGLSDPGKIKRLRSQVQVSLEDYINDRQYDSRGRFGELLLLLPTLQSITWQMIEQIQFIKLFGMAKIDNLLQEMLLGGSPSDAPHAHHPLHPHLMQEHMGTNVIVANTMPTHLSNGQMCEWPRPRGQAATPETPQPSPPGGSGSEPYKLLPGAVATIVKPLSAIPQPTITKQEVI

[10] = Shn3 3'UTR reporter inhibitors, dose response, cell-based, Clone20 osteoblasts, firefly luciferase, cherry-picked (AID 624132); type: functional;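 note: firefly luciferase luminescence from reporter carrying the Shn3 3'UTR in osteoblasts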
[11] = HepG2 cell cytotoxicity, dose response, cytotoxicity control for Shn3 inhibitor project, CellTiter-Glo, cherry-picked (AID 624134); type: functional, cell-based
[12] = test system: Streptococcus sp. 'group A'; experiment: growth inhibition of control SK(-) GAS strain, dose response, counter-screen for streptokinase expression inhibitor project, luminescence, kanamycin, BacTiterGlo, confirmation (AID 1900); type: functional, organism-based
[13] = inhibitors of intracellular T. cruzi replication, confirmation, NIH3T3 host cells, beta-gal luminescence (AID 2044); type: functional, cell-based;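 note: intracellular parasites grown in NIH/3T3 mouse fibroblasts as host cells; luminescent beta-galactosidase reporter signal from transgenic T. cruzi replicating inside host cells; inhibitors lower the luminescence signal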
[14] = cytotoxicity toward NIH3T3 fibroblasts, dose response, counter-screen, cell-based, ATP luminescence, mouse fibroblasts (AID 2010); type: functional;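 note: cells exposed to compound for about 90 hours before reading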
Streptococcus = experiment: Group A Streptococcus viability loss, dose response, counter-screen for streptokinase expression inhibitor project, luminescence, BacTiterGlo (AID 1915); type: functional, organism-based;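 note: potency for reduction of bacterial viability or growth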

## O=C1NC(=O)C(=NNc2cc([N+](=O)[O-])ccc2O)C(=O)N1
Aminopeptidase N
  IC50: 11.4 µM (active)
[1]
  AC50: 4.84 µM (active)
Protein RecA
  EC50: 3.79 µM (active)
[2]
  AC50: 111 µM (active)

## O=S(=O)(c1ccc(Br)cc1)N1CCN(c2ccc3nnc(-c4ccccc4)n3n2)CC1
[3]
  CC50: 32.9 µM (active)
[4]
  IC50: 8.5 µM (active)

## CCOc1ccc(NC(=S)NNc2ccnc3cc(Cl)ccc23)cc1
Protein Wnt-3a
  IC50: 11.4 µM (active)

## O=[N+]([O-])/C=C/c1cn(Cc2ccc(F)cc2)c2ccccc12
[5]
  EC50: 15.2 µM (active)
[6]
  EC50: 16.4 µM (active)
[7]
  AC50: 3.2 µM (active)
[8]
  AC50: 8.8 µM (active)
INS1
  AC50: 16.9 µM (active)
[9]
  IC50: 4.49 µM (active)

## C[C@H](NC(=O)c1ccco1)C(=O)Nc1nc(-c2ccccn2)cs1
[2]
  AC50: 90.1 µM (active)

## COc1ccc(-c2noc(CCCCC(=O)N3CCN(c4cc(C)ccc4C)CC3)n2)cc1
[10]
  AC50: 1.75 µM (active)
[11]
  AC50: 2.2 µM (active)
Protein Wnt-3a
  IC50: 2.84 µM (active)

## O=C(C[C@@H]1C/C=C\C[C@@H](NC(=O)OCC2c3ccccc3-c3ccccc32)C(=O)OC[C@@H](Cc2ccccc2)NC1=O)NCCO
Protein Wnt-3a
  IC50: 13.5 µM (active)

## C=C[C@]1(C)C[C@@H](OC(=O)CSCCN(CC)CC)[C@]2(C)[C@H](C)CC[C@]3(CCC(=O)[C@H]32)[C@@H](C)[C@@H]1O [TIAMULIN FUMARATE]
[12]
  EC50: < 60 nM (active)
[13]
  EC50: 1.75 µM (active)
[14]
  EC50: > 60 µM (not active)
Streptococcus
  EC50: < 60 nM (active)
[9]
  IC50: 39.8 µM (inactive)

Source: ChEMBL document CHEMBL1201862, “PubChem BioAssay data set” (2004)
